Data published in PubChem BioAssay (NCI).
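A five-concentration, 48-hour dose response in 96-well plates underlies each endpoint, interpolated linearly between surrounding concentrations. At the GI50, growth is halved. TGI: concentration producing complete growth inhibition.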

Key:
Assay in all cases: growth of human tumour cells (NCI), 48 h
[1] = tested on: MDA-MB-435
[2] = tested on: A498 renal
[3] = tested on: A549 NSCLC
[4] = tested on: K-562 leukemia
[5] = tested on: MCF7 breast
[6] = tested on: OVCAR-4 ovarian
[7] = tested on: 786-0 renal
[8] = tested on: EKVX NSCLC
[9] = tested on: SK-MEL-5 melanoma
[10] = tested on: HOP-92 NSCLC
[11] = tested on: HL-60(TB) leukemia
[12] = tested on: RPMI-8226 leukemia
[13] = tested on: MDA-MB-231 breast
[14] = tested on: OVCAR-5 ovarian
[15] = tested on: T-47D breast
[16] = tested on: HOP-62 NSCLC
[17] = tested on: HCT-15 colon
[18] = tested on: SNB-19 CNS
[19] = tested on: OVCAR-3 ovarian
[20] = tested on: NCI/ADR-RES ovarian
[21] = tested on: UO-31 renal
[22] = tested on: UACC-62 melanoma
[23] = tested on: PC-3 prostate
[24] = tested on: OVCAR-8 ovarian
[25] = tested on: KM12 colon
[26] = tested on: TK-10 renal
[27] = tested on: HCC-2998 colon
[28] = tested on: MDA-N
[29] = tested on: NCI-H522 lung
[30] = tested on: SK-MEL-28 melanoma
[31] = tested on: SF-539 CNS
[32] = tested on: SF-295 CNS
[33] = tested on: CCRF-CEM leukemia
[34] = tested on: NCI-H226 lung
[35] = tested on: SNB-75 CNS
[36] = tested on: M14 melanoma
[37] = tested on: SK-OV-3 ovarian
[38] = tested on: ACHN renal
[39] = tested on: IGROV1 ovarian
[40] = tested on: U251 CNS
[41] = tested on: CAKI-1 renal
[42] = tested on: COLO 205 colon
[43] = tested on: HCT-116 colon
[44] = tested on: SK-MEL-2 melanoma
[45] = tested on: LOX IMVI melanoma
[46] = tested on: HT29 colon
[47] = tested on: RXF 393 renal
[48] = tested on: MALME-3M melanoma
[49] = tested on: SN12C renal
[50] = tested on: NCI-H23 lung
[51] = tested on: UACC-257 melanoma
[52] = tested on: SW-620 colon
[53] = tested on: DU-145 prostate
[54] = tested on: SF-268 CNS
[55] = tested on: SR leukemia
[56] = tested on: BT-549 breast
[57] = tested on: MOLT-4 leukemia
[58] = tested on: NCI-H460 lung
[59] = tested on: HS 578T breast

NNC(=O)Nc1cccnc1
TGI [1]: > 100 µM
TGI [2]: > 100 µM
TGI [3]: > 100 µM
TGI [4]: > 100 µM
TGI [5]: > 100 µM
TGI [6]: > 100 µM
TGI [7]: > 100 µM
TGI [8]: > 100 µM
TGI [9]: > 100 µM
TGI [10]: > 100 µM
TGI [11]: > 100 µM
TGI [12]: > 100 µM
TGI [13]: > 100 µM
TGI [14]: > 100 µM
TGI [15]: > 100 µM
TGI [16]: > 100 µM
TGI [17]: > 100 µM
TGI [18]: > 100 µM
TGI [19]: > 100 µM
TGI [20]: > 100 µM
TGI [21]: > 100 µM
TGI [22]: > 100 µM
TGI [23]: > 100 µM
TGI [24]: > 100 µM
TGI [25]: > 100 µM
TGI [26]: > 100 µM
TGI [27]: > 100 µM
TGI [28]: > 100 µM
TGI [29]: > 100 µM
TGI [30]: > 100 µM
TGI [31]: > 100 µM
TGI [32]: > 100 µM
TGI [33]: > 100 µM
TGI [34]: > 100 µM
TGI [35]: > 100 µM
TGI [36]: > 100 µM
TGI [37]: > 100 µM
TGI [38]: > 100 µM
TGI [39]: > 100 µM
TGI [40]: > 100 µM
TGI [41]: > 100 µM
TGI [42]: > 100 µM
TGI [43]: > 100 µM
TGI [44]: > 100 µM
TGI [45]: > 100 µM
TGI [46]: > 100 µM
TGI [47]: > 100 µM
TGI [48]: > 100 µM
TGI [49]: > 100 µM
TGI [50]: > 100 µM
TGI [51]: > 100 µM
TGI [52]: > 100 µM
TGI [53]: > 100 µM

CCOc1cc2c(cc1O)/C(=N\OC)C[C@@H]1[C@@H]2CC[C@]2(C)[C@@H](O)CC[C@@H]12
TGI [54]: > 43.3 µM
TGI [2]: 0.944 µM
TGI [3]: > 100 µM
TGI [4]: > 100 µM
TGI [5]: > 37.6 µM
TGI [6]: > 100 µM
TGI [8]: > 100 µM
TGI [9]: 12.6 µM
TGI [10]: > 96.6 µM
TGI [13]: 44.7 µM
TGI [55]: 0.0585 µM
TGI [14]: > 100 µM
TGI [16]: 26.4 µM
TGI [17]: 16.1 µM
TGI [18]: > 100 µM
TGI [19]: 2.29 µM
TGI [20]: 0.186 µM
TGI [21]: > 58.5 µM
TGI [22]: 24 µM
TGI [56]: 40.9 µM
TGI [23]: > 30.7 µM
TGI [24]: 3.91 µM
TGI [25]: 7.63 µM
TGI [26]: > 100 µM
TGI [27]: 14.4 µM
TGI [28]: 0.031 µM
TGI [29]: 0.518 µM
TGI [30]: > 60.2 µM
TGI [57]: 26.5 µM
GI50 [32]: 0.242 µM
TGI [32]: 2.32 µM
TGI [33]: > 100 µM
TGI [34]: 0.654 µM
TGI [35]: 0.21 µM
TGI [36]: 21.8 µM
TGI [37]: > 100 µM
TGI [38]: > 100 µM
TGI [39]: > 30.1 µM
TGI [40]: 22.8 µM
TGI [58]: 37.3 µM
TGI [41]: > 23.4 µM
TGI [42]: 40.8 µM
TGI [43]: > 38.7 µM
TGI [44]: 4.42 µM
TGI [45]: 16.7 µM
TGI [46]: 15.3 µM
TGI [48]: 34.7 µM
TGI [49]: 48.1 µM
TGI [50]: > 39.2 µM
TGI [59]: 0.776 µM
TGI [51]: > 48.1 µM
TGI [52]: > 35.3 µM
TGI [53]: > 100 µM
